In series [1] the test system is Gardner lymphosarcoma (GLS). Nature of the series: Percent inhibition of transplanted Gardner lymphosarcoma (GLS) in mice. The format is in vivo. To be noted: for inhibitory activity orally / oral activity: oral; for inhibitory activity orally: 6-7 mg./kg. (3"-methyl) and 3-6 mg./kg. (3"-(β-chloroethyl)); for oral activity: 2 (VLB) and 2-4.5 (vincristine) mg./kg. As for the experimental part: (§1) The following table--Table 1--gives the results of several experiments in which mice bearing transplanted tumors were treated successfully with a compound of this invention. In the table, column 1 gives the name of the compound; column 2, the transplanted tumor; column 3, the dose level or dose level range and the number of days the dosage was administered; column 4, the route of administration, and column 5, the percent inhibition of tumor growth or percent prolongation of survival time, e.g., B16 and P388. (ROS is an abbreviation for Ridgeway osteogenic sarcoma; GLS for Gardner lymphosarcoma; P1534(J) and P388 are leukemias; CA755 is an adenocarcinoma; and B16 is a melamoma).

The next series has as its system B16. Put plainly: Percent prolongation of survival time, mice bearing transplanted B16 melanoma. The format is in vivo. As for the experimental part:
as §1

Another series has as its system P1534(J). Nature of the series: Percent inhibition, mice bearing transplanted P1534(J) leukemia. It counts as in vivo. The procedure: as §1
Series [2] concerns Ridgeway osteogenic sarcoma (ROS). Put plainly: Percent inhibition of transplanted Ridgeway osteogenic sarcoma (ROS) in mice. It counts as in vivo. To be noted: for inhibitory activity orally / oral activity: oral; for inhibitory activity orally: 6-7 mg./kg. (3"-methyl) and 3-6 mg./kg. (3"-(β-chloroethyl)); for oral activity: 2 (VLB) and 2-4.5 (vincristine) mg./kg. As for the experimental part: as §1

For another series, the system named is CA755. Nature of the series: Percent inhibition of transplanted CA755 adenocarcinoma in mice. It counts as in vivo. To be noted: for inhibitory activity orally / oral activity: oral; for inhibitory activity orally: 6-7 mg./kg. (3"-methyl) and 3-6 mg./kg. (3"-(β-chloroethyl)); for oral activity: 2 (VLB) and 2-4.5 (vincristine) mg./kg. The procedure:
as §1

The test system of series [3] is transplanted tumors. Nature of the series: Activity against transplanted tumors in mice (general statements). The format is in vivo. The settings on record: for activity by the oral route: same tumors in experimental animals; for dose level showing comparable tumor inhibition or prolongation of life: parenteral, intraperitoneal route. The procedure: as §1
A short description of series [4]: Toxicity on oral administration in tumor-bearing animals. It counts as in vivo, experimental animals. To be noted: above 2 (VLB) and 2-4.5 (vincristine) mg./kg.
The conditions of series [5]: humans; compared with vincristine; cited from earlier work.
In another series the test system is leukemias. The settings on record: humans; cited from earlier work.
The subject of series [6] is transplanted tumors. The settings on record: C-3 amides; cited from earlier work.

Take `CC[C@]1(O)C[C@@H]2CN(CCc3c([nH]c4ccccc34)[C@@](C(=O)OC)(c3cc4c(cc3OC)N(C)[C@H]3[C@]5(OC(=O)N(C)C5=O)[C@H](O)[C@]5(CC)C=CCN6CC[C@]43[C@@H]65)C2)C1` [4-desacetyl VLB 3"-methyl-3-spiro-5"-oxazolidone-2",4"-dione]: in series [1] (2.5 mg./kg. × 7 days, IP), the “Percent Inhibition” value stood at 27%.
As to `CC[C@]1(O)C[C@@H]2CN(CCc3c([nH]c4ccccc34)[C@@](C(=O)OC)(c3cc4c(cc3OC)N(C)[C@H]3[C@]5(OC(=O)N(CCCl)C5=O)[C@H](OC(C)=O)[C@]5(CC)C=CCN6CC[C@]43[C@@H]65)C2)C1` [VLB 3"-(β-chloroethyl)-3-spiro-5"-oxazolidine-2",4"-dione], the “Percent Prolongation of Survival Time” value in the series on B16 (0.4-0.6 mg./kg. × 10 days, IP) is recorded as 25-178%. For the same molecule, the “indefinite survivors (survived for 60 days till end of trial)” value in the series on B16 (0.4-0.6 mg./kg. × 10 days, IP) came out at 5. Besides, the “Percent Inhibition” value in series [1] (0.65 mg./kg. × 10 days, IP) is recorded as 47%; in series [1] (0.5-0.6 mg./kg. × 9-10 days, IP), 50-74%; in series [1] (3-4 mg./kg. × 9 days, PO), 92-100%; with CA755 (0.75-1.0 mg./kg. × 10 days, IP) it was 53%; in the series with CA755 (3-5 mg./kg. × 9-10 days, PO), 59-92%. Further, the inhibitory activity orally (in series [1]; in [2]; in the series on CA755) was 100% in each case. For the same molecule, the “Percent Inhibition or Prolongation of Survival Time” value in the series on P1534(J) (3.5 mg./kg. × 8 days, PO) is listed as 100%; in the series on P1534(J) (0.4-0.6 mg./kg. × 10 days, IP), 61-86%.
On to `CC[C@]1(O)C[C@@H]2CN(CCc3c([nH]c4ccccc34)[C@@](C(=O)OC)(c3cc4c(cc3OC)N(C)[C@H]3[C@]5(OC(=O)N(C)C5=O)[C@H](OC(=O)NC)[C@]5(CC)C=CCN6CC[C@]43[C@@H]65)C2)C1` [4-desacetyl VLB 3"-methyl-3-spiro-5"-oxazolidine-2",4"-dione-4-(N-methyl)carbamate], for which the “Percent Inhibition” value in series [1] (0.1-2.5 mg./kg. × 7-9 days, IP) is 40-100%.
In the case of `CC[C@]1(O)C[C@@H]2CN(CCc3c([nH]c4ccccc34)[C@@](C(=O)OC)(c3cc4c(cc3OC)N(C)[C@H]3[C@@](O)(C(=O)OC)[C@H](OC(C)=O)[C@]5(CC)C=CCN6CC[C@]43[C@@H]65)C2)C1` [VLB, vincaleukoblastine, reference compound], the “activity by the oral route” value with transplanted tumors [3] is recorded as “do not show this degree of oral activity”. Also, in the series on transplanted tumors [3], the “dose level showing comparable tumor inhibition or prolongation of life” value was 0.4 to 0.45 mg/kg. Besides, in series [4], the “toxicity at higher levels” value is “usually are toxic at higher levels”. Moreover, the oral activity result in series [1] is listed as “only marginally active, if at all”; in series [2] it was “only marginally active, if at all”; in the series with CA755, “only marginally active, if at all”.
Take `CC[C@]1(O)C[C@@H]2CN(CCc3c([nH]c4ccccc34)[C@@](C(=O)OC)(c3cc4c(cc3OC)N(C)[C@H]3[C@]5(OC(=O)N(C)C5=O)[C@H](OC(C)=O)[C@]5(CC)C=CCN6CC[C@]43[C@@H]65)C2)C1` [VLB 3"-methyl-3-spiro-5"-oxazolidine-2",4"-dione]: in the series with B16 (4.5 mg./kg. × 10 days, IP (so in the source)), the “Percent Prolongation of Survival Time” value was 49-91%. The “indefinite survivors (survived for 60 days till end of trial)” value in the series on B16 (0.5-0.6 mg./kg. × 10 days, IP) is given as 3. The “Percent Inhibition” value in [1] (0.6 mg./kg. × 7 days, IP) was 100%; in series [1] (1.25 mg./kg. × 9 days, IP), 100%; in series [1] (3-4 mg./kg. × 10 days, PO), 100%; in [1] (3-5 mg./kg. × 10 days, PO), 37-56%; in [2] (5-7 mg./kg. × 10 days, PO), 38-59%; in the series with CA755 (0.5-1.0 mg./kg. × 10 days, IP), 45-100%. The inhibitory activity orally (in [1]; in series [2]; in the series on CA755) was 100% each time. The “Percent Inhibition or Prolongation of Survival Time” value in the series on P1534(J) (3-4 mg./kg. × 8 days, PO) is on record as 100%; in the series on P1534(J) (.5-.6 mg./kg. × 10 days, IP), 100%.
Consider `CC[C@]1(O)C[C@@H]2CN(CCc3c([nH]c4ccccc34)[C@@](C(=O)OC)(c3cc4c(cc3OC)N(C=O)[C@H]3[C@]5(OC(=O)N(C)C5=O)[C@H](OC(C)=O)[C@]5(CC)C=CCN6CC[C@]43[C@@H]65)C2)C1` [Vincristine 3"-methyl-3-spiro-5"-oxazolidine-2",4"-dione], for which the “Percent Inhibition” value in [1] (1.0 mg./kg. × 7 days, IP) came out at 61%.
Take `CC[C@]1(O)C[C@@H]2CN(CCc3c([nH]c4ccccc34)[C@@](C(=O)OC)(c3cc4c(cc3OC)N(C)[C@H]3[C@@](O)(C(N)=O)[C@H](O)[C@]5(CC)C=CCN6CC[C@]43[C@@H]65)C2)C1` [vindesine, 4-desacetyl VLB C-3 carboxamide]: the neurotoxicity entry in [5] was “less neurotoxicity than does vincristine”. Besides, the “activity in the treatment of leukemias” value in the series on leukemias is recorded as “active in certain leukemias”.
As for `C=CCN1C(=O)O[C@]2(C1=O)[C@H](OC(C)=O)[C@]1(CC)C=CCN3CC[C@@]4(c5cc([C@@]6(C(=O)OC)C[C@H]7CN(CCc8c6[nH]c6ccccc86)C[C@](O)(CC)C7)c(OC)cc5N(C)[C@@H]24)[C@@H]31` [VLB 3"-allyl-3-spiro-5"-oxazolidine-2",4"-dione], in series [1] (2.5 mg./kg. × 7 days, IP), the “Percent Inhibition” value turned out to be 35%.
`CC[C@]1(O)C[C@@H]2CN(CCc3c([nH]c4ccccc34)[C@@](C(=O)OC)(c3cc4c(cc3OC)N(C)[C@H]3[C@@](O)(C(=O)NCCS)[C@H](O)[C@]5(CC)C=CCN6CC[C@]43[C@@H]65)C2)C1` [C-3 N-(β-mercaptoethyl)carboxamide of 4-desacetyl VLB]: the “anti-tumor activity in mice” value in the series with transplanted tumors [6] is “highly effective anti-tumor agent in mice”.
Regarding `CC[C@]1(O)C[C@H]2CN(CCc3c([nH]c4ccccc34)[C@@](C(=O)OC)(c3cc4c(cc3OC)N(C=O)[C@H]3[C@@](O)(C(=O)OC)[C@H](OC(C)=O)[C@]5(CC)C=CCN6CC[C@]43[C@@H]65)C2)C1` [vincristine, leurocristine], the “activity by the oral route” value with transplanted tumors [3] is reported as “do not show this degree of oral activity”. The “dose level showing comparable tumor inhibition or prolongation of life” value in the series on transplanted tumors [3] lay within 0.2 to 0.25 mg/kg. Also, the “activity in the treatment of leukemias” value in the series on leukemias was “most active and useful agent in the treatment of leukemias”. The “toxicity at higher levels” value in [4] is “usually are toxic at higher levels”. For the same molecule, the oral activity entry in series [1] is recorded as “only marginally active, if at all”; in [2], “only marginally active, if at all”; in the series on CA755 it was “only marginally active, if at all”.

The values are drawn from USRE30560E, “Oxazolidinedione derivatives of Vinca alkaloids” (Eli Lilly and Company, priority 1979, dated 1981).
